What was measured:
[1] = ERα+ breast cancer patients receiving 20 mg/day TAM monotherapy; cited from earlier work
[2] = test system: AKT phosphorylation in T47D cells; test: Immunoblot of AKT phosphorylation, serum starved T47D; assay type: cell-based, human; details: 0.1 µM
Description: (§1) The ENDX hydrochloride utilized in this study was synthesized in collaboration between Mayo Clinic and National Institute of Health (NIH). Estrogen deprived MCF7AC1 were treated with vehicle control or ENDX (National Cancer Institute) for 24 h. For the phorbol 12-myristate 13-acetate (PMA) (LC Laboratories, #P-1680) experiments, MCF7AC1 cells were maintained in serum-free medium for 24 h prior to pretreatment with vehicle or ENDX for 2 h followed by treatment with 20 or 200 nM PMA for 20 min. For the insulin (Sigma-Aldrich, #I0516) experiments, MCF7AC1 and T47D cells were maintained in serum-free medium for 24 h prior to pretreatment with vehicle control or drugs for 2 h followed by treatment with 100 nM insulin for 1 h.
Protein lysates were prepared using the RIPA lysis buffer system (ChemCruz #sc-24948) and quantified using the DC^TM Protein Assay reagents (Bio-Rad #5000112). Equal amounts of protein lysates were separated on 10% Criterion gels (Bio-Rad #3450112), transferred to PVDF membranes (Bio-Rad #1620177), blocked in TBST-5% milk and probed with primary antibodies listed in Supplementary Table 5, at the indicated dilutions. Membranes were incubated with HRP-conjugated anti-rabbit (CST #7074) or anti-mouse (CST #7076) secondary antibodies and visualized using chemiluminescent West Pico (Thermo Scientific #34580) or West Femto (Thermo Scientific #34096) reagents and a Li-Cor Odyssey® XF imager. […] Quantitation of the protein bands signal intensity was performed using the NIH ImageJ image analysis software (https://imagej.nih.gov/ij///index.html). For the quantitation of the phospho protein levels, we first normalized total protein levels to β-actin loading control and used these values to normalize the phospho protein levels and compared change in protein expression levels relative to vehicle control normalized to 1.0. For the quantitation of total protein levels, we normalized the total protein levels to β-actin and compared change in expression levels relative to vehicle control normalized to 1.0. […]

[3] = test system: AKT phosphorylation (pAKT^Ser473, pAKT^Thr308, p-AKT substrates) in MCF7AC1 cells; test: Immunoblot of AKT signaling and PARP cleavage, MCF7AC1; assay type: cell-based, human; details: for Effect on insulin-stimulated AKT^Ser473 and AKT^Thr308 phosphorylations: 100 nM insulin 1 h, 0.1 µM
Description: as §1, with “For the phorbol 12-myristate 13-acetate (PMA) (LC Laboratories, #P-1680) experiments, MCF7AC1 cells were maintained in serum-free medium for 24 h prior to pretreatment with vehicle or ENDX for 2 h followed by treatment with 20 or 200 nM PMA for 20 min.” left out
(§2) Protein lysates were prepared using the RIPA lysis buffer system (ChemCruz #sc-24948) and quantified using the DC^TM Protein Assay reagents (Bio-Rad #5000112). Equal amounts of protein lysates were separated on 10% Criterion gels (Bio-Rad #3450112), transferred to PVDF membranes (Bio-Rad #1620177), blocked in TBST-5% milk and probed with primary antibodies listed in Supplementary Table 5, at the indicated dilutions. Membranes were incubated with HRP-conjugated anti-rabbit (CST #7074) or anti-mouse (CST #7076) secondary antibodies and visualized using chemiluminescent West Pico (Thermo Scientific #34580) or West Femto (Thermo Scientific #34096) reagents and a Li-Cor Odyssey® XF imager. Protein lysates from the MCF7AC1 xenograft model were obtained from a previous study. Quantitation of the protein bands signal intensity was performed using the NIH ImageJ image analysis software (https://imagej.nih.gov/ij///index.html). For the quantitation of the phospho protein levels, we first normalized total protein levels to β-actin loading control and used these values to normalize the phospho protein levels and compared change in protein expression levels relative to vehicle control normalized to 1.0. For the quantitation of total protein levels, we normalized the total protein levels to β-actin and compared change in expression levels relative to vehicle control normalized to 1.0. All blots were processed in parallel and derived from the same experiments. Unprocessed immunoblot images are provided in Supplementary Figs. 9–13.

[4] = test system: MCF7AC1 cells; test: IncuCyte Annexin V apoptosis assay, MCF7AC1; assay type: cell-based, human; details: for Effect on apoptosis: CSS medium, 48 h, ENDX 5 µM, TAM 0.1 µM, ICI 0.1 µM
Description: (§3) MCF7AC1 and T47D-LTED cells were plated at a density of 2000 cells per well in CSS medium for 24 h. Cells were then co-treated for 48 h with vehicle or drug, IncuCyte Annexin V green reagent (#4642, 1:300), an early-stage apoptosis marker, and IncuCyte NucLight rapid red reagent (#4717, 1:500), a dye that stains all cell nuclei red, in CSS medium. MCF7AC1^caAKT cells were plated at a cell density of 2000 cells per well in CSS medium in the absence or presence of cumate for 48 h and then co-treated with vehicle or drug, Annexin V green and NucLight rapid red reagents in the absence or presence of cumate for an additional 48 h in CSS medium.

[5] = test system: PKCβ1 in MCF7AC1 cells; test: Immunoblot of PKCβ1 and pPKCβ1^Ser661, MCF7AC1; assay type: cell-based, human; details: serum starved; for Effect on PKCβ1 total protein in insulin treated cells: 100 nM insulin 1 h, ENDX 0.01, 0.1, 5 µM, TAM 0.1 µM, ICI 0.1 µM
Description: as §1, §2

[6] = test system: T47D-LTED cells; test: Crystal violet cell viability assay, T47D-LTED; assay type: cell-based, human; details: CSS medium, six days
Description: (§4) Cells were plated at a density of 2000 cells per well. Cell viability of (i) vehicle or drug treated MCF7AC1 and T47D-LTED cells in CSS medium, (ii) siNT or siPKCβ-transfected MCF7AC1 cells in CSS medium and (iii) T47D cells in FBS versus CSS medium were analyzed by crystal violet staining assay after 6 days of treatment or siRNA transfection as previously described. Cell viability was calculated as the average absorbance of the drug treated cells divided by the average absorbance of the vehicle treated cells × 100.
(§5) Supplementary Figure 6. […] Cell viability is assessed by the crystal violet assay. b, MCF7AC1 cells were co-treated with vehicle control or 0.01, 0.1 and 5 µM MK-2206 and IncuCyte Annexin V green and NucLight rapid red reagents in CSS medi um for 48 hours. […]
Cells were plated at a density of 2000 cells per well. c, MCF7AC1 cells were treated with vehicle control or 0.01, 0.1 and 5 µM MK-2206 in CSS medium for 24 hours. […] Cell viability is assessed by the crystal violet assay. f, Parental T47D and T47D-LTED cells were processed for protein lysates. […] Cell viability is assessed by the crystal violet assay. h, T47D-LTED cells were co-treated with vehicle control or 0.01, 0.1 and 5 µM MK -2206 and IncuCyte Annexin V green and NucLight rapid red reagents in CSS medium for 48 hours. […] Cell viability is assessed by the crystal violet assay. […]

[7] = test system: MCF7AC1 cells; test: Crystal violet cell viability / proliferation assay, MCF7AC1; assay type: cell-based, human; details: estrogen deprived (CSS), six days
Description: Fig. 1 Z-endoxifen (ENDX) effects on cell viability and apoptosis in estrogen deprived ERα+ /HER2- MCF7AC1 cells. a Cells grown in CSS medium were treated with vehicle control or the indicated ENDX concentrations for […]. Cell viability was assessed by the crystal violet assay. b Cells were co-treated with vehicle control or the indicated ENDX concentrations, IncuCyte Annexin V green and NucLight red reagents in CSS medium for 48 h. […] Data represents the mean of six wells per treatment performed as biological duplicates ± s.d. **p ≤ 0.01; ***p ≤ 0.001; ****p ≤ 0.0001 by one-way ANOVA.
as §4

[8] = test system: T47D-LTED cells; test: IncuCyte Annexin V apoptosis assay, T47D-LTED; assay type: cell-based, human; details: CSS medium; 1 and 5 µM, but not 0.1 µM
Description: as §3, §5
Cells were plated at a density of 2000 cells per well. c, MCF7AC1 cells were treated with vehicle control or 0.01, 0.1 and 5 µM MK-2206 in CSS medium for 24 hours. […] Cell viability is assessed by the crystal violet assay. f, Parental T47D and T47D-LTED cells were processed for protein lysates. […] Percentage of cells undergoing apoptosis was calculated as mentioned in b. i, T47D-LTED cells were treated with vehicle control or 0.01, 0.1 and 5 µM MK -2206 in CSS medium for 24 hours . […]

[9] = test system: AKT^Ser473 phosphorylation in T47D-LTED cells; test: Immunoblot of pAKT^Ser473, T47D-LTED; assay type: cell-based, human; details: CSS medium, 24 h; 1 and 5 µM, but not 0.1 µM
Description: Protein lysates were prepared using the RIPA lysis buffer system (ChemCruz #sc-24948) and quantified using the DC^TM Protein Assay reagents (Bio-Rad #5000112). Equal amounts of protein lysates were separated on 10% Criterion gels (Bio-Rad #3450112), transferred to PVDF membranes (Bio-Rad #1620177), blocked in TBST-5% milk and probed with primary antibodies listed in Supplementary Table 5, at the indicated dilutions. Membranes were incubated with HRP-conjugated anti-rabbit (CST #7074) or anti-mouse (CST #7076) secondary antibodies and visualized using chemiluminescent West Pico (Thermo Scientific #34580) or West Femto (Thermo Scientific #34096) reagents and a Li-Cor Odyssey® XF imager. Protein lysates from the MCF7AC1 xenograft model were obtained from a previous study. Quantitation of the protein bands signal intensity was performed using the NIH ImageJ image analysis software (https://imagej.nih.gov/ij///index.html). For the quantitation of the phospho protein levels, we first normalized total protein levels to β-actin loading control and used these values to normalize the phospho protein levels and compared change in protein expression levels relative to vehicle control normalized to 1.0. For the quantitation of total protein levels, we normalized the total protein levels to β-actin and compared change in expression levels relative to vehicle control normalized to 1.0. […]

[10] = test system: ERα+/HER2- metastatic breast cancer; details: cited from earlier work
[11] = test system: PKCβ1 in MCF7AC1 cells; test: Immunoblot of PKCβ1 and pPKCβ1^Ser661, MCF7AC1; assay type: cell-based, human; details: serum starved, 1 µM ENZA 2 h, 200 nM PMA 30 min

Compound: CC/C(=C(\c1ccc(O)cc1)c1ccc(OCCN(C)C)cc1)c1ccccc1 [4-HT]
- Clinically attainable serum concentration [1]: < 5 nM

Compound: C[C@]12CC[C@@H]3c4ccc(O)cc4C[C@@H](CCCCCCCCC[S+]([O-])CCCC(F)(F)C(F)(F)F)[C@H]3[C@@H]1CC[C@@H]2O (stereo partly drawn) [ICI, ICI-182780, reference compound]
- Effect on insulin-stimulated AKT^Ser473 phosphorylation [2]: failing to block insulin-stimulated AKT^Ser473 phosphorylation
- Effect on insulin-stimulated AKT^Ser473 and AKT^Thr308 phosphorylations ([3]; serum starved): failed to inhibit insulin-stimulated AKT^Ser473 and AKT^Thr308 phosphorylations
- Effect on apoptosis [4]: failed to induce apoptosis
- Effect on PKCβ1 total protein in insulin treated cells [5]: failed to diminish PKCβ1 total protein expression

Compound: NC1(c2ccc(-c3nc4ccn5c(=O)[nH]nc5c4cc3-c3ccccc3)cc2)CCC1 [MK-2206, reference compound]
- Concentrations at which AKT^Ser473 phosphorylation was reduced ([3]; estrogen deprived (CSS), 24 h): ≥ 1 µM
- Concentration from which growth was significantly inhibited [6]: ≥ 0.1 µM
- Concentration at which apoptosis (annexin V binding and PARP1 cleavage) was induced ([4]; estrogen deprived (CSS)): 5 µM
- Concentrations at which growth was inhibited [7]: ≥ 0.1 µM
- Concentrations increasing apoptosis (annexin V staining, PARP cleavage) [8]: ≥ 1 µM
- Concentrations reducing AKT^Ser473 phosphorylation [9]: ≥ 1 µM

Compound: CCCCCCCCCCCCCC(=O)O[C@@H]1[C@@H](C)[C@@]2(O)[C@@H](C=C(CO)C[C@]3(O)C(=O)C(C)=C[C@@H]23)[C@@H]2C(C)(C)[C@]12OC(C)=O [PMA, phorbol 12-myristate 13-acetate, reference compound]
- Effect of PKC agonist on PKCβ1^Ser661 and AKT^Ser473 phosphorylation ([5]; 20 and 200 nM, 20 min): stimulated PKCβ1^Ser661 auto-phosphorylation and AKT^Ser473 phosphorylation

Compound: CC/C(=C(\c1ccccc1)c1ccc(OCCN(C)C)cc1)c1ccccc1 [TAM, tamoxifen, reference compound]
- PFS in CDK4/6 inhibitor naïve patients ([10]; CDK4/6i naïve): 2.4 m
- Progression free survival (PFS) overall ([10]; women with ERα+/HER2- metastatic breast cancer progressed on endocrine therapy): 1.8 m
- Effect on insulin-stimulated AKT^Ser473 phosphorylation [2]: failing to block insulin-stimulated AKT^Ser473 phosphorylation
- Effect on insulin-stimulated AKT^Ser473 and AKT^Thr308 phosphorylations ([3]; serum starved): failed to inhibit insulin-stimulated AKT^Ser473 and AKT^Thr308 phosphorylations
- Effect on apoptosis [4]: failed to induce apoptosis
- Effect on PKCβ1 total protein in insulin treated cells [5]: failed to diminish PKCβ1 total protein expression

Compound: Cn1cc(C2=C(c3cn(C4CCN(Cc5ccccn5)CC4)c4ccccc34)C(=O)NC2=O)c2ccccc21 [enzastaurin]
- Effect on PKCβ1 expression [11]: neither impacted the expression of PKCβ1
- Effect on PMA-stimulated PKCβ1^Ser661 phosphorylation [11]: reduced PKCβ1^Ser661 phosphorylation

Compound: Insulin: known activator of AKT^Ser473 phosphorylation (Sigma-Aldrich)
- Effect on AKT^Ser473 phosphorylation ([3]; serum starved, 100 nM, 1 h): robustly stimulated AKT^Ser473 phosphorylation

From PMC10730845, “Endoxifen downregulates AKT phosphorylation through protein kinase C beta 1 inhibition in ERα+ breast cancer” (NPJ Breast Cancer, 2023)
